Assay results published in patent publication US5773019A, “Implantable controlled release device to deliver drugs directly to an internal portion of the body” (The University of Kentucky Research Foundation, priority 1995, dated 1998).
Converted amounts (≈) assume the structure as drawn.

Columns and labels:
[1] = In vitro release of ciprofloxacin from device (HPLC); format: physicochemical
Procedure: Ciprofloxacin is normally supplied as the HCl salt. […] A 5% solution of PLA was used as a "glue" to fix a 7-0 nylon suture to the pellet.
Release from these devices was determined at 37° C. by immersion in 1 ml of phosphate buffer (pH 7.4) or a solution composed of 20% serum: 80% phosphate buffer. […] Samples were again assayed by HPLC.

[2] = tested on: eye; test: Ocular safety of ciprofloxacin device (ERG, slit lamp, indirect biomicroscopy)
[3] = tested on: most pathogens; conditions: cited from earlier work
[4] = tested on: eye; test: ERG toxicity of retinoic acid implant sutured onto sclera; format: in vivo; conditions: 12 mg disc in silicone on sclera, 3 rabbits, ERG weekly for 5 weeks
Procedure: A device according to the present invention was prepared. This device was composed of a 3 mm, 12 mg disc of retinoic acid encased in silicone. It resembles FIG. 3 in appearance. The implant was prepared by preparing a thin film of silicone. A 2.5 mm hole was then cut through the film and the retinoic acid pellet fixed directly over the hole using silicone. A loop of Prolene suture was placed over the pellet and fixed onto the surface of the film so that a "gap" of over 1 mm was present between the pellet and the suture all the way around. The entire assembly was then coated again in silicone. These pellets were sutured onto the surface of the sclera in 3 rabbits and the ERGs taken every week for 5 weeks.

| SMILES | linearity of release ([1]; 37° C., 6 days, phosphate buffer pH 7.4 or 20% serum) | effect of serum concentration on release ([1]; phosphate buffer pH 7.4 vs 20% serum) | linearity of release ([1]; separate study, twenty day period) | slit lamp examination ([2]; 7 and 14 days) | indirect biomicroscopy ([2]; implanted eyes) | ERG waveforms or amplitudes ([2]; pre- vs post-implantation) | persistence of drug particles in subconjunctival space (5 mg subconjunctival suspension injection) [days] | linearity of release in the vitreous (explanted devices) | mean release rate in the vitreous (explanted devices) [µg/h] | mean device duration (from mean release rate) [weeks] | MIC90 [3] [µg/mL] | toxicity (ERG) [4] |
| --- | --- | --- | --- | --- | --- | --- | --- | --- | --- | --- | --- | --- |
| O=C(O)c1cn(C2CC2)c2cc(N3CCNCC3)c(F)cc2c1=O [ciprofloxacin] | linear over the duration of the study | relatively independent of serum concentration | linear over a twenty day period | mild vitreous cell at 7 days that had resolved by 14 days | devices to be stable with no migration and no retinal detachment | no significant difference in the pre- and post-implantation waveforms or amplitudes | 7 | linear while in the vitreous | 2.5 | 4 | 1 (≈ 3.02 µM) |  |
| CC1=C(/C=C/C(C)=C/C=C/C(C)=C/C(=O)O)C(C)(C)CCC1 [retinoic acid] |  |  |  |  |  |  |  |  |  |  |  | no evidence of toxicity |
